Values quoted from earlier work in US20050148519A1, “Salts of pharmacologically active compounds” (priority 2003, published 2005).

Legend:
[1] = for Injection site reaction: intramuscular or subcutaneous for flunixin, route not given for the others
[2] = dog, oral 2.2, 6.6 and 11.0 mg/kg

SMILES | Injection site reaction [1] | Time for injection site reactions to dissipate ([1]; in vivo) | Time flunixin is present in tissues at a pharmaceutically effective amount (injection in a conventional format) | Flunixin serum concentration immediately following administration (single dose 1.1 mg/kg) | Flunixin serum concentration within 4 hours of administration (single dose 1.1 mg/kg) | Time post administration to undetectable flunixin serum levels (single dose 1.1 mg/kg) | Side effects following oral dosing [2]
CN(C)[C@@H]1C(O)=C(C(N)=O)C(=O)[C@@]2(O)C(O)=C3C(=O)c4c(O)cccc4[C@@](C)(O)[C@H]3[C@H](O)[C@@H]12 [Oxytetracyclines, oxytetracycline] | severe injection site inflammations and even necrosis | – | – | – | – | – | –
CC[C@H]1OC(=O)C[C@@H](O)[C@H](C)[C@@H](O[C@@H]2O[C@H](C)[C@@H](O)[C@H](N(C)C)[C@H]2O)[C@@H](CCN2C[C@H](C)C[C@H](C)C2)C[C@@H](C)C(=O)/C=C/C(C)=C/[C@@H]1CO[C@@H]1O[C@H](C)[C@@H](O)[C@@H](OC)[C@H]1OC [tilmicosin] | mild injection site reactions | two to three days | – | – | – | – | –
Cc1c(Nc2ncccc2C(=O)O)cccc1C(F)(F)F [flunixin] | can cause tissue damage | – | 6 to 12 h | 8 to 13 µg/mL | sub micro gram/mL | 6 to 12 h | vomiting, diarrhea, blood in stools, and gastro-intestinal ulceration were common
